Like-named read-outs stand apart in the source and are kept apart here.
Tests used:
WNV NS2B-NS3 proteinase [1] = target: T1, WNV NS2B-NS3 proteinase (West Nile virus, UniProt Q9Q6P4); experiment: WNV NS2B-NS3 proteinase activity assay with Pyr-RTKR-AMC fluorogenic substrate; assay type: biochemical; settings: for inhibitory activity (in words): qualitative statement
Stability = assay type: physicochemical; settings: qualitative statement
[2] = Stability in the in vitro assay buffer without enzyme; assay type: physicochemical; settings: absence of enzyme, Figure 2
WNV NS2B-NS3 proteinase [3] = target: T1, WNV NS2B-NS3 proteinase; experiment: Stability in the in vitro assay buffer with WNV NS2B-NS3 proteinase; settings: Figure 2
WNV NS2B-NS3 proteinase [4] = target: T1, WNV NS2B-NS3 proteinase; settings: products of ester hydrolysis; cited from earlier work

T1 sequence (Q9Q6P4 1506-1683): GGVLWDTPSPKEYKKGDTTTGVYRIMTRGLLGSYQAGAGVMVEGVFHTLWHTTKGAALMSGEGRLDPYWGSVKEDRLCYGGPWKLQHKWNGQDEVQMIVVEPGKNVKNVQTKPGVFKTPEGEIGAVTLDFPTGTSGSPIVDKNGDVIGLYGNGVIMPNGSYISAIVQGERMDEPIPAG
T1 sequence (Q9Q6P4 1375-1505): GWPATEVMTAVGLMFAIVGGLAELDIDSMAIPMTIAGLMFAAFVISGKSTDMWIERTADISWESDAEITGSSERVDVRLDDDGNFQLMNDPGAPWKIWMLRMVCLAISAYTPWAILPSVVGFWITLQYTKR

`COc1ccc(S(=O)(=O)n2nc(OC(=O)c3ccccc3)cc2N)cc1` [Compound 1] showed an IC50 (WNV NS2B-NS3 proteinase [1]) of 0.105 µM.
`COc1ccc(S(=O)(=O)n2nc(OC(=O)c3cccs3)cc2N)cc1` [Compound 2] gave an IC50 (WNV NS2B-NS3 proteinase [1]) of 0.11 µM.
With `COc1ccc(S(=O)(=O)n2nc(OC(=O)c3c(F)cccc3F)cc2N)cc1` [Compound 7a] the “stability in pH 8 buffer (in words)” value (Stability) was “significantly more stable”.
For `COc1ccc(S(=O)(=O)n2nc(OC(=O)c3ccc(F)cc3F)cc2N)cc1` [Compound 7e], the “stability in assay buffer (in words)” value [2] was “relatively stable” and the “stability in presence of enzyme (in words)” value (WNV NS2B-NS3 proteinase [3]) was “degraded rapidly”.
For `COc1ccc(S(=O)(=O)n2nc(OC(=O)c3ccccc3C)cc2N)cc1` [Compound 7f], the “inhibitory activity (in words)” value (WNV NS2B-NS3 proteinase [1]) was “retained its micromolar inhibitory activity”.
In the case of `COc1ccc(S(=O)(=O)n2nc(OC(=O)c3c(Cl)cccc3Cl)cc2N)cc1` [Compound 7n], the IC50 (WNV NS2B-NS3 proteinase [1]) is reported as greater than 100 µM and the “inhibitory activity (in words)” value (WNV NS2B-NS3 proteinase [1]) is reported as “complete loss of activity”.
With `COc1ccc(S(=O)(=O)n2nc(OC(=O)c3ccccc3OC)cc2N)cc1` [Compound 7o] the “inhibitory activity (in words)” value (WNV NS2B-NS3 proteinase [1]) was “inactive”.
With `COc1ccc(S(=O)(=O)n2nc(OC(=O)c3ccccc3[N+](=O)[O-])cc2N)cc1` [Compound 7p] the IC50 (WNV NS2B-NS3 proteinase [1]) was greater than 100 µM and the “inhibitory activity (in words)” value (WNV NS2B-NS3 proteinase [1]) was “inactive”.
For `COc1ccc(Cn2nc(C)cc2O)cc1` [Compound 8, 1-(4-methoxybenzyl)-3-methyl-1H-pyrazol-5-ol], the IC50 (WNV NS2B-NS3 proteinase [4]) is given as greater than 100 µM.
In the case of `COc1ccc(Cn2nc(C)cc2OC(=O)c2ccccc2)cc1` [Compound 10a], the “stability in presence of enzyme (in words)” value (WNV NS2B-NS3 proteinase [3]) is reported as “approximately the same in the presence or absence of the enzyme” and the “stability in pH 8 buffer (in words)” value (Stability) is reported as “significantly more stable”.
Work on `COc1ccc(Cn2nc(C)cc2CC(O)c2ccccc2)cc1` (stereo not shown) [Compound 12a] yielded an IC50 (WNV NS2B-NS3 proteinase [1]) greater than 100 µM.
Work on `COc1ccc(Cn2nc(C)cc2CC(O)c2c(F)cccc2F)cc1` (stereo not shown) [Compound 12b] yielded an IC50 (WNV NS2B-NS3 proteinase [1]) greater than 100 µM.
`COc1ccc(Cn2nc(C)cc2CC(=O)c2ccccc2)cc1` [Compound 13a] gave an IC50 (WNV NS2B-NS3 proteinase [1]) greater than 100 µM.
With `COc1ccc(Cn2nc(C)cc2/C=C/c2c(F)cccc2F)cc1` [Compound 14] the “stability in pH 8 buffer (in words)” value (Stability) was “highly stable”.
With `Cc1cc(NC(=O)c2ccccc2)n(-c2ccccc2)n1` [Compound 15] the “stability in pH 8 buffer (in words)” value (Stability) was “highly stable”.

Source: paper PMC2776708 (Bioorganic & medicinal chemistry letters, 2009)
